Experiments:
[1] = system: ERK phosphorylation (pERK) induced by KRAS G12D mutation; assay: Inhibitory activity against ERK phosphorylation (pERK) induced by KRAS G12D mutation, immunofluorescence assay in AsPC-1 cells; format: cell-based; conditions: Homo sapiens, ASPC1, 3 h drug treatment, pERK (Thr202/Tyr204) signal normalized to DAPI
Outline: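 AsPC-1 cells attached 16 h, then treated 3 h with 3-fold dilutions from 10 μM top. Fixed, permeabilized, immunostained for pERK (Thr202/Tyr204) with Alexa 488 secondary; high-content imaging, signal normalized to DAPI and to DMSO, IC50 from four-parameter fit.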

[2] = target: T1, GppNHp-KRAS G12D mutant protein (Homo sapiens, UniProt P01116, G12D); assay: Differential scanning fluorimetry (DSF) binding affinity to GppNHp-KRAS G12D mutant protein; conditions: DSF thermal shift, 10 μM compound, 4 μg KRAS protein, 50 mM HEPES (pH 7.5)
T1 construct: purchased Daegu Gyeongbuk Medical Innovation Foundation (DGMIF), made to order
Outline: (§1)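 Thermal shift ΔTm was measured at 10 μM compound over a 25–99 °C ramp (0.05 °C/s), read at 580 nm ex/623 nm em with SYPRO Orange (2×). The protein (4 μg) was preincubated with compound for 30 min at room temperature, in 50 mM HEPES pH 7.5 for GppNHp-KRAS G12D or in kit buffer for GDP-KRAS G12D.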

[3] = system: KRAS G12D mutant pancreatic cancer cell line AsPC-1; assay: Cell viability assay using KRAS G12D mutant cells (AsPC-1, 3D culture, celltiter-glo 3D); format: cell-based; conditions: Homo sapiens, ASPC1, 5th day after compound treatment
Protocol: Test Example 3: Cell Viability Assay Using KRAS G12D Mutant Cells
The KRAS G12D mutant pancreatic cancer cell line AsPC-1 was obtained from the Korean Cell Line Bank (KCLB) and maintained in 100-mm dishes or T75 (75 cm^2) flasks using RPM11640+10% fetal bovine serum (FBS)+1% Penicillin-Streptomycin medium. The cells were cultured at 37° C. with 5% CO2. The number of viable cells was counted using Countess (Invitrogen).
When AsPC-1 cells reached 85-100% confluence in the flask, the cells were harvested using 1× trypsin/EDTA solution, and seeded into a 96-well plate for 3D culture at 1000 cells/100 μL/well. The next day, the compounds were diluted ⅕ with DMSO from 10 μM or 50 μM to 0.0001 μM or 0.0006 μM and treated 1:1 (v/v) in the plate where the cells were seeded.
Cell culture was terminated on the 5th day after compound treatment, and cell viability at each concentration was measured using the celltiter-glo 3D cell viability assay kit.
Cell viability assays were normalized to 100% for the DMSO-treated group and expressed as a percentage of the number of viable cells when treated with the compound.
Cell viability %=(average RLU of group treated with test substance−average RLU of untreated group)/(average RLU of group treated with DMSO−average RLU of untreated group)×100
The data were modeled using GraphPad Prism 9 (GraphPad Software) by applying a nonlinear regression curve fit with a four-parameter sigmoidal dose-response curve to determine cell viability as a function of compound concentration. The 50% inhibitory concentration (IC50) corresponds to the concentration at which the curve intersects the midpoint of cell viability. The results of the inhibitory effect of the compounds according to one embodiment of the present application on the viability of KRAS G12D mutant cells are presented in Table 4.

[4] = target: T2, GDP-KRAS G12D mutant protein (Homo sapiens, UniProt P01116, G12D); assay: Differential scanning fluorimetry (DSF) binding affinity to GDP-KRAS G12D mutant protein; conditions: DSF thermal shift, 10 μM compound, 4 μg KRAS protein
T2 construct: purchased Daegu Gyeongbuk Medical Innovation Foundation (DGMIF), made to order
Outline: as §1

Compound	IC50 [1] [µM]	GppNHp-KRAS G12D (ΔTmD, ° C.) [2] [°C]	IC50 [3] [µM]	GDP-KRAS G12D (ΔTmD, ° C.) [4] [°C]
C#Cc1c(F)ccc2cc(O)cc(-c3cc4nc(OC[C@@]56CCCN5CC(=C(F)F)C6)nc(N5C[C@H]6CC[C@@H](C5)N6)c4n4ccnc34)c12 [Example 37, 4-(1-((1R,5S)-3,8-diazabicyclo[3.2.1]octan-3-yl)-3-(((S)-2-(difluoromethylene)tetrahydro-1H-pyrrolizin-7a(5H)-yl)methoxy)imidazo[1′,2′:1,6]pyrido[3,2-d]pyrimidin-6-yl)-5-ethynyl-6-fluoronaphthalen-2-ol]	0.012	5.76	0.029	11.53
C#Cc1c(F)ccc2cc(O)cc(-c3c(F)c4nc(OC[C@@]56CCCN5C/C(=C\F)C6)nc(N5C[C@H]6CC[C@@H](C5)N6)c4c4cn(C)nc34)c12 [Example 94, 4-(9-((1R,5S)-3,8-diazabicyclo[3.2.1]octan-3-yl)-5-fluoro-7-(((S,Z)-2-(fluoromethylene)tetrahydro-1H-pyrrolizin-7a(5H)-yl)methoxy)-2-methyl-2H-pyrazolo[4,3-f]quinazolin-4-yl)-5-ethynyl-6-fluoronaphthalen-2-ol]	0.018	12.28	0.014	17.46
C#Cc1c(F)ccc2cc(O)cc(-c3cc4nc(OC[C@@]56CCCN5C[C@H](F)C6)nc(N5C[C@H]6CC[C@@H](C5)N6)c4c4cn(C)nc34)c12 [Example 69, 4-(9-((1R,5S)-3,8-diazabicyclo[3.2.1]octan-3-yl)-7-(((2R,7aS)-2-fluorotetrahydro-1H-pyrrolizin-7a(5H)-yl)methoxy)-2-methyl-2H-pyrazolo[4,3-f]quinazolin-4-yl)-5-ethynyl-6-fluoronaphthalen-2-ol]	0.169	7.24	0.19	11.68
C#Cc1c(F)ccc2cc(O)cc(-c3cc4nc(OCC5(CN6CCC7(CC6)CC7(F)F)CC5)nc(N5C[C@H]6CC[C@@H](C5)N6)c4n4ccnc34)c12 [Example 9, 4-(1-((1R,5S)-3,8-diazabicyclo[3.2.1]octan-3-yl)-3-((1-((1,1-difluoro-6-azaspiro[2.5]octan-6-yl)methyl)cyclopropyl)methoxy)imidazo[1′,2′:1,6]pyrido[3,2-d]pyrimidin-6-yl)-5-ethynyl-6-fluoronaphthalen-2-ol]	0.165	3.39	0.05	8.87
CCc1c(F)ccc2cc(O)cc(-c3cc4nc(OC[C@@]56CCCN5C[C@H](F)C6)nc(N5C[C@H]6CC[C@@H](C5)N6)c4n4ccnc34)c12 [Example 1, 4-(1-((1 R,5S)-3,8-diazabicyclo[3.2.1]octan-3-yl)-3-(((2R,7aS)-2-fluorotetrahydro-1H-pyrrolizin-7a(5H)-yl)methoxy)imidazo[1′,2′:1,6]pyrido[3,2-d]pyrimidin-6-yl)-5-ethyl-6-fluoronaphthalen-2-ol]	0.322	4.27	0.364	10.05
C#Cc1c(F)ccc2cc(O)cc(-c3cc4nc(OC[C@@]56CCCN5C[C@H](F)C6)nc(N5C[C@H]6CC[C@@H](C5)N6)c4n4ccnc34)c12 [Example 2, 4-(1-((1 R,5S)-3,8-diazabicyclo[3.2.1]octan-3-yl)-3-(((2R,7aS)-2-fluorotetrahydro-1H-pyrrolizin-7a(5H)-yl)methoxy)imidazo[1′,2′:1,6]pyrido[3,2-d]pyrimidin-6-yl)-5-ethynyl-6-fluoronaphthalen-2-ol]	0.169	5.61	0.226	9.91
C#Cc1c(F)ccc2cc(O)cc(-c3cc4nc(OCC5(CN6CCOCC6)CC5)nc(N5C[C@H]6CC[C@@H](C5)N6)c4n4ccnc34)c12 [Example 7, 4-(1-((1 R,5S)-3,8-diazabicyclo[3.2.1]octan-3-yl)-3-((1-(morpholinomethyl)cyclopropyl)methoxy)imidazo[1′,2′:1,6]pyrido[3,2-d]pyrimidin-6-yl)-5-ethynyl-6-fluoronaphthalen-2-ol]	0.269	3.24	0.109	8.57
Cn1cc2c(n1)c(-c1cc(O)cc3ccc(F)c(F)c13)c(F)c1nc(OC[C@@]34CCCN3C[C@H](F)C4)nc(N3C[C@H]4CC[C@@H](C3)N4)c12 [Example 95, 4-(9-((1R,5S)-3,8-diazabicyclo[3.2.1]octan-3-yl)-5-fluoro-7-(((2R,7aS)-2-fluorotetrahydro-1H-pyrrolizin-7a(5H)-yl)methoxy)-2-methyl-2H-pyrazolo[4,3-f]quinazolin-4-yl)-5,6-difluoronaphthalen-2-ol]	0.082	7.54	0.263	11.83
Cc1cc2c(o1)c(-c1cc(O)cc3ccccc13)cc1nc(OC[C@@]34CCCN3C[C@H](F)C4)nc(N3C[C@H]4CC[C@@H](C3)N4)c12 [Example 41, 4-(1-((1R,5S)-3,8-diazabicyclo[3.2.1]octan-3-yl)-3-(((2R,7aS)-2-fluorotetrahydro-1H-pyrrolizin-7a(5H)-yl)methoxy)-8-methylfuro[3,2-f]quinazolin-6-yl)naphthalen-2-ol]	0.899	0.87	1.02	5.46
C#Cc1c(F)ccc2cc(O)cc(-c3c(F)c4nc(OC[C@@]56CCCN5C[C@H](F)C6)nc(N5C[C@H]6CC[C@@H](C5)N6)c4c4cn(C)nc34)c12 [Example 80, 4-(9-((1R,5S)-3,8-diazabicyclo[3.2.1]octan-3-yl)-5-fluoro-7-(((2R,7aS)-2-fluorotetrahydro-1H-pyrrolizin-7a(5H)-yl)methoxy)-2-methyl-2H-pyrazolo[4,3-n]quinazolin-4-yl)-5-ethynyl-6-fluoronaphthalen-2-ol]	0.035	11.13	0.046	14.81
C#Cc1c(F)ccc2cc(O)cc(-c3c(F)c4nc(OC[C@]56CC(=C)CN5C[C@@H](F)C6)nc(N5C[C@H]6CC[C@@H](C5)N6)c4c4cc(C)oc34)c12 [Example 65, 4-(1-((1R,5S)-3,8-diazabicyclo[3.2.1]octan-3-yl)-5-fluoro-3-(((2S,7aR)-2-fluoro-6-methylenetetrahydro-1H-pyrrolizin-7a(5H)-yl)methoxy)-8-methylfuro[3,2-f]quinazolin-6-yl)-5-ethynyl-6-fluoronaphthalen-2-ol]	0.004	8.60	0.005	14.23
C#Cc1c(F)ccc2cc(N)cc(-c3c(F)c4nc(OC[C@@]56CCCN5C[C@H](F)C6)nc(N5C[C@H]6CC[C@@H](C5)N6)c4c4cn(C)nc34)c12 [Example 81, 4-(9-((1R,5S)-3,8-diazabicyclo[3.2.1]octan-3-yl)-5-fluoro-7-(((2R,7aS)-2-fluorotetrahydro-1H-pyrrolizin-7a(5H)-yl)methoxy)-2-methyl-2H-pyrazolo[4,3-n]quinazolin-4-yl)-5-ethynyl-6-fluoronaphthalen-2-amine]	0.081	6.66	0.28	10.04
C#Cc1c(F)ccc2cc(O)cc(-c3c(F)c4nc(OC[C@@]56CC[C@@H](COC)N5CC(=C)C6)nc(N5C[C@H]6CC[C@@H](C5)N6)c4c4cn(C)nc34)c12 [Example 96, 4-(9-((1R,5S)-3,8-diazabicyclo[3.2.1]octan-3-yl)-5-fluoro-7-(((5S,7aS)-5-(methoxymethyl)-2-methylenetetrahydro-1H-pyrrolizin-7a(5H)-yl)methoxy)-2-methyl-2H-pyrazolo[4,3-n]quinazolin-4-yl)-5-ethynyl-6-fluoronaphthalen-2-ol]	0.02	10.64	0.011	15.09
